Laboratory results reported in US20100267561A1, “HERBICIDAL PYRIDAZINONE DERIVATIVES” (priority 2007, published 2010).

Tests used:
Assay type in all cases: in vivo
[1] = system: cocklebur (Xanthium strumarium); assay: Test B pre-/postemergence plant response; conditions: for Cocklebur plant response rating: 8 g ai/ha, postemergence, 0-100 scale; for Plant response rating, Cocklebur: Postemergence
Summary of the method: (§1)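 Preemergence and postemergence (plants 2-18 cm, 1- to 4-leaf stage) applications used test chemicals in a non-phytotoxic solvent with surfactant. Plants were held in a greenhouse 13 to 15 days, then rated visually against controls on a 0-100 scale (0 no effect, 100 complete control).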

[2] = system: downy bromegrass (Bromus tectorum); assay: Test B pre-/postemergence plant response; conditions: for Bromegrass, Downy plant response rating: 8 g ai/ha, postemergence, 0-100 scale; for Plant response rating, Bromegrass, Downy: Postemergence
Summary of the method: as §1

[3] = system: goosegrass (Eleusine indica); assay: Test B pre-/postemergence plant response; conditions: for Goosegrass plant response rating: postemergence, 0-100 scale; for Plant response rating, Goosegrass: Postemergence
Summary of the method: as §1

[4] = system: green foxtail (Setaria viridis); assay: Test B pre-/postemergence plant response; conditions: for Foxtail, Green plant response rating: 8 g ai/ha, postemergence, 0-100 scale; for Plant response rating, Foxtail, Green: Postemergence
Summary of the method: as §1

[5] = system: large crabgrass (Digitaria sanguinalis); assay: Test B pre-/postemergence plant response; conditions: for Crabgrass, Large plant response rating: 8 g ai/ha, postemergence, 0-100 scale; for Plant response rating, Crabgrass, Large: Postemergence
Summary of the method: as §1

[6] = system: pigweed (Amaranthus retroflexus); assay: Test B pre-/postemergence plant response; conditions: for Pigweed plant response rating: postemergence, 0-100 scale; for Plant response rating, Pigweed: Postemergence
Summary of the method: as §1

soybean (Glycine max) = assay: Test B pre-/postemergence plant response; conditions: for Soybean plant response rating: postemergence, 0-100 scale; for Plant response rating, Soybean: Postemergence
Summary of the method: as §1

[7] = system: velvetleaf (Abutilon theophrasti); assay: Test B pre-/postemergence plant response; conditions: for Velvetleaf plant response rating: postemergence, 0-100 scale; for Plant response rating, Velvetleaf: Postemergence
Summary of the method: as §1

[8] = system: wheat (Triticum aestivum); assay: Test B pre-/postemergence plant response; conditions: for Wheat plant response rating: postemergence, 0-100 scale; for Plant response rating, Wheat: Postemergence
Summary of the method: as §1

[9] = system: woolly cupgrass (Eriochloa villosa); assay: Test B pre-/postemergence plant response; conditions: for Cupgrass, Woolly plant response rating: 8 g ai/ha, postemergence, 0-100 scale; for Plant response rating, Cupgrass, Woolly: Postemergence
Summary of the method: as §1

rice (Oryza sativa) = assay: Test B flooded paddy test plant response
Summary of the method: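 2-leaf plants; pots flooded 3 cm above soil; compound added to paddy water; depth maintained. Greenhouse 13–15 d. Visual rating vs controls, 0 (no effect) to 100 (complete control); dash = no result.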

[10] = 62 g ai/ha, scale 0 to 100, 0 no effect, 100 complete control
[11] = Flood (flooded paddy test), 62 g ai/ha, scale 0 to 100, 0 no effect, 100 complete control
[12] = Flood (flooded paddy test), 250 g ai/ha, scale 0 to 100, 0 no effect, 100 complete control

Cc1nn(C)c(=O)c(-n2nc(-c3ccc(Cl)cc3)cc2Cl)c1O [Compound 59]
Cocklebur plant response rating [1]: 0
Plant response rating, Cocklebur ([1]; 16 g ai/ha, scale 0 to 100): 0
Plant response rating, Cocklebur ([1]; 31 g ai/ha, scale 0 to 100): 0
Plant response rating, Cocklebur [1, 10]: 0
Bromegrass, Downy plant response rating [2]: 0
Plant response rating, Bromegrass, Downy ([2]; 16 g ai/ha, scale 0 to 100): 5
Plant response rating, Bromegrass, Downy ([2]; 31 g ai/ha, scale 0 to 100): 5
Plant response rating, Bromegrass, Downy [2, 10]: 10
Goosegrass plant response rating ([3]; 8 g ai/ha): 0
Plant response rating, Goosegrass ([3]; 16 g ai/ha, scale 0 to 100): 0
Plant response rating, Goosegrass ([3]; 31 g ai/ha, scale 0 to 100): 0
Plant response rating, Goosegrass [3, 10]: 0
Foxtail, Green plant response rating [4]: 50
Plant response rating, Foxtail, Green ([4]; 16 g ai/ha, scale 0 to 100): 90
Plant response rating, Foxtail, Green ([4]; 31 g ai/ha, scale 0 to 100): 90
Plant response rating, Foxtail, Green [4, 10]: 95
Crabgrass, Large plant response rating [5]: 20
Plant response rating, Crabgrass, Large ([5]; 16 g ai/ha, scale 0 to 100): 45
Plant response rating, Crabgrass, Large ([5]; 31 g ai/ha, scale 0 to 100): 55
Plant response rating, Crabgrass, Large [5, 10]: 60
Pigweed plant response rating ([6]; 8 g ai/ha): 0
Plant response rating, Pigweed ([6]; 16 g ai/ha, scale 0 to 100): 0
Plant response rating, Pigweed ([6]; 31 g ai/ha, scale 0 to 100): 0
Plant response rating, Pigweed [6, 10]: 0
Soybean plant response rating (soybean (Glycine max); 8 g ai/ha): 0
Plant response rating, Soybean (soybean (Glycine max); 16 g ai/ha, scale 0 to 100): 0
Plant response rating, Soybean (soybean (Glycine max); 31 g ai/ha, scale 0 to 100): 0
Plant response rating, Soybean (soybean (Glycine max); [10]): 0
Velvetleaf plant response rating ([7]; 8 g ai/ha): 0
Plant response rating, Velvetleaf ([7]; 16 g ai/ha, scale 0 to 100): 0
Plant response rating, Velvetleaf ([7]; 31 g ai/ha, scale 0 to 100): 0
Plant response rating, Velvetleaf [7, 10]: 0
Wheat plant response rating ([8]; 8 g ai/ha): 0
Plant response rating, Wheat ([8]; 16 g ai/ha, scale 0 to 100): 15
Plant response rating, Wheat ([8]; 31 g ai/ha, scale 0 to 100): 40
Plant response rating, Wheat [8, 10]: 50
Cupgrass, Woolly plant response rating [9]: 55
Plant response rating, Cupgrass, Woolly ([9]; 16 g ai/ha, scale 0 to 100): 60
Plant response rating, Cupgrass, Woolly ([9]; 31 g ai/ha, scale 0 to 100): 65
Plant response rating, Cupgrass, Woolly [9, 10]: 85
Plant response rating, Rice (rice (Oryza sativa); [11]): 10
Plant response rating, Rice (rice (Oryza sativa); [12]): 25

CCc1cc(-c2ccc(Br)cc2)nn1-c1c(O)cnn(CC(F)(F)F)c1=O [Compound 73]
Cocklebur plant response rating [1]: 0
Plant response rating, Cocklebur ([1]; 16 g ai/ha, scale 0 to 100): 0
Plant response rating, Cocklebur ([1]; 31 g ai/ha, scale 0 to 100): 0
Plant response rating, Cocklebur [1, 10]: 0
Bromegrass, Downy plant response rating [2]: 0
Plant response rating, Bromegrass, Downy ([2]; 16 g ai/ha, scale 0 to 100): 0
Plant response rating, Bromegrass, Downy ([2]; 31 g ai/ha, scale 0 to 100): 30
Plant response rating, Bromegrass, Downy [2, 10]: 60
Goosegrass plant response rating ([3]; 8 g ai/ha): 70
Goosegrass plant response rating ([3]; 16 g ai/ha): 90
Plant response rating, Goosegrass ([3]; 31 g ai/ha, scale 0 to 100): 90
Plant response rating, Goosegrass [3, 10]: 90
Foxtail, Green plant response rating [4]: 40
Plant response rating, Foxtail, Green ([4]; 16 g ai/ha, scale 0 to 100): 70
Plant response rating, Foxtail, Green ([4]; 31 g ai/ha, scale 0 to 100): 70
Plant response rating, Foxtail, Green [4, 10]: 100
Crabgrass, Large plant response rating [5]: 45
Plant response rating, Crabgrass, Large ([5]; 16 g ai/ha, scale 0 to 100): 70
Plant response rating, Crabgrass, Large ([5]; 31 g ai/ha, scale 0 to 100): 100
Plant response rating, Crabgrass, Large [5, 10]: 100
Pigweed plant response rating ([6]; 8 g ai/ha): 0
Pigweed plant response rating ([6]; 16 g ai/ha): 0
Plant response rating, Pigweed ([6]; 31 g ai/ha, scale 0 to 100): 0
Plant response rating, Pigweed [6, 10]: 0
Soybean plant response rating (soybean (Glycine max); 8 g ai/ha): 0
Soybean plant response rating (soybean (Glycine max); 16 g ai/ha): 0
Plant response rating, Soybean (soybean (Glycine max); 31 g ai/ha, scale 0 to 100): 10
Plant response rating, Soybean (soybean (Glycine max); [10]): 10
Velvetleaf plant response rating ([7]; 8 g ai/ha): 0
Velvetleaf plant response rating ([7]; 16 g ai/ha): 0
Plant response rating, Velvetleaf ([7]; 31 g ai/ha, scale 0 to 100): 0
Plant response rating, Velvetleaf [7, 10]: 0
Wheat plant response rating ([8]; 8 g ai/ha): 5
Wheat plant response rating ([8]; 16 g ai/ha): 60
Plant response rating, Wheat ([8]; 31 g ai/ha, scale 0 to 100): 90
Plant response rating, Wheat [8, 10]: 95
Cupgrass, Woolly plant response rating [9]: 85
Plant response rating, Cupgrass, Woolly ([9]; 16 g ai/ha, scale 0 to 100): 98
Plant response rating, Cupgrass, Woolly ([9]; 31 g ai/ha, scale 0 to 100): 100
Plant response rating, Cupgrass, Woolly [9, 10]: 100
Plant response rating, Rice (rice (Oryza sativa); [11]): 0
Plant response rating, Rice (rice (Oryza sativa); Flood (flooded paddy test), 125 g ai/ha, scale 0 to 100, 0 no effect, 100 complete control): 0
Plant response rating, Rice (rice (Oryza sativa); [12]): 0
Plant response rating, Rice (rice (Oryza sativa); Flood, 31 g ai/ha, scale 0 to 100): 0
